{
  "source": "patent US6833353B1",
  "about": "“Use of immunosuppressants for MMP mediated diseases” (Fujisawa Pharmaceutical Co., Ltd., priority 1998, dated 2004)",
  "assay_type_in_all_cases": "in vivo, Lewis rats",
  "key": {"IFN-γ": {"tested_on": "IFN-γ", "assay": "IFN-γ level in granulomatous tissue extract (ELISA), implant model", "details": "day 14", "protocol": "(§1) Bone and excess tissue overlying the cartilage was removed under sterile conditions, in an airflow hood. The septum was washed in 70% ethanol before the cartilage was cut to a weight of 40×2mg. The cartilages were wrapped tightly in sterile cotton squares and soaked in 0.1 ml of a 10 mg/ml homogenized suspension of heat-killed Mycobacterium tuberculosis H37RA (Difco) in saline. Eight cartilages were stored in −20° C., these were to measure the levels of collagen in non-implanted cartilages.\n(§2) Eight weeks old female Lewis rats were anaesthetized using halothane. The stomach area was shaved and swabbed with ethanol. […]\n(§3) The granulomatous tissues were homogenized in 1 ml of 50 mM Tris, pH 7.5 containing 5 mM CaCl2, 0.1% Triton X-100 and 0.02% NaN3) After centrifugation of the extract at 15000 rpm for 10 min to remove debris, the supernatant was assayed for collagenolytic activity, gelatinolytic activity, tumor necrosis factor-α (TNF-α) level and Interferon-γ (IFN-γ) level. Collagenolytic and gelatinolytic activities in the extracts were measured using commercial assay kits (YAGAI, Japan). Cytokines levels were also measured using ELISA kits (Cosmo Bio, Japan). The protein contents in the extracts was determined using the method of Lowry.\n(§4) Data is expressed as mean±SEM. The significance of differences was determined by Dunnett's multiple comparison test (*p<0.05, **p<0.01)."}, "collagenase": {"tested_on": "collagenase", "assay": "Collagenolytic activity in granulomatous tissue extract, implant model", "details": "day 14", "protocol": "as §1, §2, §3, §4"}, "TNF-α": {"tested_on": "TNF-α", "assay": "TNF-α level in granulomatous tissue extract (ELISA), implant model", "details": "day 14", "protocol": "as §1, §2, §3, §4"}, "gelatinase": {"tested_on": "gelatinase", "assay": "Gelatinolytic activity in granulomatous tissue extract, implant model", "details": "day 14", "protocol": "as §1, §2, §3, §4"}, "cartilage degradation": {"tested_on": "cartilage degradation", "assay": "Cartilage degradation in cotton-wrapped cartilage implant model (hydroxyproline content of implanted cartilage)"}},
  "note": "Marks after values point to notes of the source that are not given here.",
  "data": [
    {"smiles": "C=CC[C@@H]1/C=C(\\C)C[C@H](C)C[C@H](OC)[C@H]2O[C@@](O)(C(=O)C(=O)N3CCCC[C@H]3C(=O)O[C@H](/C(C)=C/[C@@H]3CC[C@@H](O)[C@H](OC)C3)[C@H](C)[C@@H](O)CC1=O)[C@H](C)C[C@@H]2OC", "note": "[FK506, 17-allyl-1,14-dihydroxy-12-[2-(4-hydroxy-3-methoxycyclohexyl)-1-methylvinyl]-23,25-dimethoxy-13,19,21,27-tetramethyl-11,28-dioxa-4-azatricyclo[22.3.1.0^4,9] octacos-18-ene-2,3,10,16-tetraone]", "values": [
      {"measurement": "inhibition (%) IFN-γ", "setting": "IFN-γ; 1.0 mg/kg po once daily", "value": 58.1, "unit": "%"},
      {"measurement": "inhibition (%) IFN-γ", "setting": "IFN-γ; 3.2 mg/kg po once daily", "value": "73.4* %"},
      {"measurement": "inhibition (%) collagenase", "setting": "collagenase; 1.0 mg/kg po once daily", "value": 7.7, "unit": "%"},
      {"measurement": "inhibition (%) collagenase", "setting": "collagenase; 3.2 mg/kg po once daily", "value": 29.8, "unit": "%"},
      {"measurement": "inhibition (%) TNF-α", "setting": "TNF-α; 1.0 mg/kg po once daily", "value": "43.9** %"},
      {"measurement": "inhibition (%) TNF-α", "setting": "TNF-α; 3.2 mg/kg po once daily", "value": "56.6** %"},
      {"measurement": "inhibition (%) gelatinase", "setting": "gelatinase; 1.0 mg/kg po once daily", "value": "67.9* %"},
      {"measurement": "inhibition (%) gelatinase", "setting": "gelatinase; 3.2 mg/kg po once daily", "value": "82.1** %"},
      {"measurement": "Recovery (%) of Hydroxyproline", "setting": "cartilage degradation; 3.2 mg/kg po once daily, 14 days, implanted bovine nasal cartilage, rat", "value": "61.9** %"},
      {"measurement": "inhibition of the decrease of hydroxyproline contents in cartilage", "setting": "cartilage degradation; 3.2 mg/kg po, uid, rat implant model", "value": 62, "unit": "%"}
    ]}
  ]
}
